Columns and labels:
[1] = test system: PKC; test: PKC activity in CA-treated HeLa cells; type: cell-based; conditions: 100 μM CA, 14 h; control 0.01 ± 0.002
Procedure: (§1) High concentrations of BAs that inhibit ENT-mediated Ado transport could lead to an increase in extracellular Ado levels and therefore impact cell surface AdoR signaling.
(§2) PKC activity was measured using PKC kinase activity kit (ADI-EKS-420A) purchased from Enzo Biochem. IP3 levels were quantified using an IP3 (Inositol Triphosphate) ELISA Kit (EKF58173) supplied by Biomatik Corporation.

[2] = target: T1, ENT3 (Homo sapiens, UniProt Q9BZD2); parameters: method as in PMID 33623001; conditions: previous studies, cited from earlier work; for Km: read-out: Km of BA transport by ENT3
T1 construct: plasma membrane–directed ENT3 with a truncated N-terminus (that harbors lysosomal targeting motif); expressed in transfected cells; host or cells: Xenopus laevis oocytes injected with in vitro-transcribed mRNA from pOX-Δ36hENT3
T1 sequence (Q9BZD2 with tags, fused parts or gaps): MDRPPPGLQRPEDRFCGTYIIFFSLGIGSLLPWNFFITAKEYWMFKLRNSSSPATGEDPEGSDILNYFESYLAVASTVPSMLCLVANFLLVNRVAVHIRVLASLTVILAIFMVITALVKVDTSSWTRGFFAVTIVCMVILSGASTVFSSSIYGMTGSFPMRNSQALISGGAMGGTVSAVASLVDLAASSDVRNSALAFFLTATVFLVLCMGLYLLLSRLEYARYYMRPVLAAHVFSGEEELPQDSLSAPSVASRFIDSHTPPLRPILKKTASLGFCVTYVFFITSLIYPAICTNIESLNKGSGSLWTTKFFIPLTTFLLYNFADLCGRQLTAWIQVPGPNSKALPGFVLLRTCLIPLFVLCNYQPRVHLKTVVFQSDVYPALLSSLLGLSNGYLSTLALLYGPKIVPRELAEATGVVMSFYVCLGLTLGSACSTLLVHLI

[3] = test system: cAMP; test: cAMP levels in CA-treated HeLa cell lysate; type: cell-based; conditions: 100 μM CA, 14 h; control 0.96 ± 0.14
[4] = target: T2, ENT2 (Homo sapiens, UniProt Q14542); test: BA transport by ENT2-injected oocytes quantified by LC-MS/MS; type: cell-based; parameters: expressed in transfected cells; host or cells: Xenopus laevis oocytes injected with in vitro-transcribed capped mRNA from pOX-hENT2; conditions: pH 7.4, p < 0.001 compared with water-injected oocytes
T2 sequence (Q14542 1-456): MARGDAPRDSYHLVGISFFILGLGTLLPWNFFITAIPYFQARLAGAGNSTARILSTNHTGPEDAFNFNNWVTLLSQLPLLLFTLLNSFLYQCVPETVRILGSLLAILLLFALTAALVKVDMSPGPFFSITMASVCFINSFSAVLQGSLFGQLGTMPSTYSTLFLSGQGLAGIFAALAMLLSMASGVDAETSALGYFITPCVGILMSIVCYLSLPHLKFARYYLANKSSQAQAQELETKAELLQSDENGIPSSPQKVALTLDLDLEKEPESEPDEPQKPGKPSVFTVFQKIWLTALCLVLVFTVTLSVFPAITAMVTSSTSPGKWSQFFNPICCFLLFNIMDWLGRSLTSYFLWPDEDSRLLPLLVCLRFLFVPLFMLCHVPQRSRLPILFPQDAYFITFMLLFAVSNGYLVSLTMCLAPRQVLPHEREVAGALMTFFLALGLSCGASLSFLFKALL
Procedure: Therefore, we studied several different BAs and used a liquid chromatography–tandem mass spectrometry (LC‒MS/MS) method to quantify the transport activity of H2O-injected and ENT2 mRNA-injected oocytes using TCA as a positive control. […] We subsequently tested the ability of ENT2 to transport BAs at different physiological pH values ranging from pH 5.5 to pH 7.4 by varying the pH of the transport buffers in which the assay was conducted.
The mass spectrometric validation of the transport of all metabolites was performed with oocytes using a previously reported method ([24]). […] After an incubation at 4 °C for 24 h, the samples were centrifuged at 20,000g for 10 min, and the supernatants were collected. The samples (10 μl) were injected into a Thermo Scientific Vanquish UPLC system interfaced with a Thermo Scientific TSQ Quantiva triple-stage quadrupole mass spectrometer equipped with an H-ESI ion source. MS detection was conducted in negative ionization mode, and the transitions monitored for each metabolite are listed in Sup. Table S2. The operational mass spectrometric parameters included a capillary voltage of 4.5 kV; sheath gas of 35 arbitrary units; auxiliary gas of 10 arbitrary units; sweep gas of two arbitrary units; ion transfer tube temperature of 350 °C; vaporizer temperature of 450 °C; dwell time of 50 ms per transition; collision energy of 5 V; and collision-induced dissociation gas of 1.5 mTorr. Chromatographic separation was performed on a Kinetex […] (100 × 2.1 mm; 1.7 μm particle size) from Phenomenex. The mobile phase consisted of solvent A: water (0.1% formic acid) and solvent B: acetonitrile (0.1% formic acid). The flow rate was set at 0.3 ml/min, and the autosampler was maintained at 4 °C throughout the analysis.

[5] = Cholestatic mouse model: liver CA, 13C-Ado and total Ado by LC/MS-MS; type: in vivo; conditions: includes endogenous Ado
Procedure: We also examined the total Ado content (includes endogenous Ado) in the harvested mouse livers using LC‒MS‒MS.
Adenosine and ^13C-Ado concentrations were determined in liver tissue samples using a targeted LC‒MS/MS method. The liver samples (∼50 mg) were homogenized with 80% methanol and spiked with 1 μg/ml reserpine as an internal standard. The samples were thoroughly vortexed for 30 s and then centrifuged at 20,000g for 10 min. The supernatant was collected in labeled Eppendorf tubes, and 15 μl of each sample was injected into the LC‒MS/MS system. […] The operational mass spectrometric parameters included a capillary voltage of 4.5 kV; sheath gas of 35 arbitrary units; auxiliary gas of 10 arbitrary units; sweep gas of two arbitrary units; ion transfer tube temperature of 350 °C; vaporizer temperature of 450 °C; dwell time of 50 ms per transition, and collision-induced dissociation gas of 1.5 mTorr. The collision energy was set at 20 V for both Ado and ^13C-Ado, whereas it was set to 38 V for reserpine. Chromatographic separation was performed on a Scherzo SMC18 column (150 × 4.6 mm; 3 μm particle size) from Imtakt. […]
Two hours after the injection, mouse livers were harvested, and the amount of ^13C-Ado uptake in the liver was quantified via LC–MS-MS. […]

[6] = test system: PKA; test: PKA activity in CA-treated HeLa cells; type: cell-based; conditions: 100 μM CA, 14 h; control 0.27 ± 0.016
[7] = test system: IP3; test: IP3 levels in CA-treated HeLa cells; type: cell-based; conditions: 100 μM CA, 14 h; control 0.011 ± 0.0004
Procedure: as §1, §2

| SMILES | PKC activity in HeLa cells [1] [U/μg protein] | Vmax of BA transport by ENT3 [2] [pmol/30 min/oocyte] | Km [2] [µM] | cAMP levels in total HeLa cell lysate [3] [pMol/μg protein] | transport by ENT2 mRNA-injected vs water-injected oocytes (LC-MS/MS) [4] | reduction in the total Ado level in liver compared with control mice [5] [%] | PKA activity in HeLa cells [6] [U/μg protein] | IP3 levels in HeLa cells [7] [μg/μg protein] |
| --- | --- | --- | --- | --- | --- | --- | --- | --- |
| C[C@H](CCC(=O)O)[C@H]1CC[C@H]2[C@@H]3[C@H](O)C[C@@H]4C[C@H](O)CC[C@]4(C)[C@H]3C[C@H](O)[C@]12C [CA, cholic acid] | 0.02 ± 0.0001 | 3.07 ± 0.04 | 168 ± 13.3 | 1.28 ± 0.04 | significant transport | ~12 | 0.54 ± 0 | 0.023 ± 0.0006 |
| C[C@H](CCC(=O)O)[C@H]1CC[C@H]2[C@@H]3CC[C@@H]4C[C@H](O)CC[C@]4(C)[C@H]3C[C@H](O)[C@]12C [DCA, deoxycholic acid] |  | 3.4 ± 0.06 | 270 ± 24.3 |  |  |  |  |  |
| C[C@H](CCC(=O)NCCS(=O)(=O)O)[C@H]1CC[C@H]2[C@@H]3[C@H](O)C[C@@H]4C[C@H](O)CC[C@]4(C)[C@H]3C[C@H](O)[C@]12C [TCA, taurocholic acid] |  |  |  |  | significant transport |  |  |  |

— article PMC12152883, “Bile acids inhibit equilibrative adenosine transport to alter adenosine receptor signaling in cholestasis” (The Journal of Biological Chemistry, 2025)
